The record followed here is patent US8680152B2, “Cathepsin inhibitors for the treatment of bone cancer and bone cancer pain” (Virobay, Inc., priority 2011, dated 2014).

pIC50: −log10 of the molar value.

In series [1] the test system is cathepsin S-dependent invariant chain processing. The experiment in a line: Cathepsin S-dependent invariant chain processing in Raji B cells. Format: cell-based. The conditions noted are these: Homo sapiens, read-out: inhibition of cathepsin S-dependent invariant chain processing IC50.
Series [2] has as its target T1, cathepsin S (Mus musculus, UniProt O70370). The experiment in a line: Cathepsin S enzyme across species: mouse. Format: biochemical.
Series [3] addresses cathepsin S enzyme (Rattus norvegicus, UniProt Q02765). The experiment in a line: Cathepsin S enzyme across species: rat. Format: biochemical.
The target in series [4] is cathepsin S enzyme (Canis lupus familiaris, UniProt Q8HY81). The experiment in a line: Cathepsin S enzyme across species: dog. Format: biochemical.
Chain of cathepsin S enzyme (Canis lupus familiaris, UniProt Q8HY81) (Q8HY81 115-331): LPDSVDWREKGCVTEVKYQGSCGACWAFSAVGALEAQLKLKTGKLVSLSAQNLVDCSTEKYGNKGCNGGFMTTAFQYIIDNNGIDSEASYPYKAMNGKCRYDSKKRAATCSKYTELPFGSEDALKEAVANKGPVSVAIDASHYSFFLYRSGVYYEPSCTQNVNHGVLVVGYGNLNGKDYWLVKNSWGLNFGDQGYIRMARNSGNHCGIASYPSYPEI
For series [5], the system named is tumor invasion. The experiment in a line: In vitro bioassay for tumor invasiveness. Format: cell-based.
Series [6] deals with angiogenesis. The experiment in a line: In vitro bioassay for angiogenesis. Format: cell-based.
The subject of series [7] is 66.1 cancer cells in the bone. The experiment in a line: Bone cancer pain study (breast cancer cells implanted in femur). Format: in vivo, mice. On the procedure:
FIG. 3: Bone cancer and bone cancer pain study with Compound A. FIG. 3a: Protocol. Bone cancer pain study with Compound A. Dose groups: Vehicle, Zoledronate (100 μg/kg ) positive control, Compound A (100 mg/kg, daily dosing, SC, days 7-21), 10 animals per group Control animals were injected with media (and no tumor cells) in the femur. FIGS. 3b-3d. Left to right: Sham/media +Compound A, Cancer +vehicle, cancer +zoledronate, cancer +Compound A. FIG. 3b: Effects on bone destruction. […] Spontaneous Pain in the form of Flinching was attenuated by Compound Aon day 14 and day 21 with statistical significance, as compared to vehicle. […] Movement evoked pain was attenuated by Compound A on day 13 with statistical significance as compared to vehicle.
FIG. 6. Histology Analysis of Bone Samples in Bone Caner Pain Study. Representative bone sections from the study described in FIG. 3A were subjected to staining with the standard hematoxylin and eosin histological stain to visualize cellular structures in the bone. In FIG. 6, the pitting of the bone is shown and indicated from samples in the study arm with 66.1 cancer cells in the bone and dosed with vehicle control only, which is due to ostelytic activity induced by the presence of the 66.1 cancer cells in the bone.
FIG. 3a sets forth the treatment protocol for the bone cancer pain study with Compound A. Dose groups: Vehicle, Zoledronate (100 μg/kg) positive control, Compound A (100 mg/kg, daily dosing, SC, days 7-21), 10 animals per group. Mice were implanted with breast cancer cells in the femur on day 0 and treated with Compound A on days 7 through 21. On days 0, 7, 14, and 21 radiographic imaging, thermal hyperalgesia, tactile allodynia, movement-evoked and spontaneous pain measurements were taken. Pain measurements were made 6 hours after dosing. Control animals were injected with media (and no tumor cells) in the femur. […] Bone destruction was attenuated by Compound A on day 14 and day 21 as compared to vehicle. The efficacy was similar to that obtained with zoledronate (see, FIG. 3b). […] Spontaneous Pain in the form of Flinching was attenuated by Compound A on day 14 and day 21 with statistical significance, as compared to vehicle (see, FIG. 3d). […] Movement evoked pain was attenuated by Compound A on day 13 with statistical significance as compared to vehicle (see, FIG. 3e).
Compound A was dosed subcutaneously, at a 100 mg/kg dose once a day, in a nanoparticle-sized formulation suitable for subcutaneous dosing and diluted in D5W (sterile 5% dextrose in water). Dosing was initiated 7 days after the femur implantation of the 66.1 tumor cells and continued once a day.
The data in FIG. 6 is based on representative bone sections from the study described in FIG. 3A, which were subjected to staining with the standard histological stain hematoxylin and eosin, in order to visualize cellular structures in the bone. Visualized samples include bone sections from study animals with 66.1 tumor cells injected into bone and dosed with either vehicle control or compound A and also animals with media alone injected into bone and also dosed with compound A. Normal hemapoetic cells of the bone and the 66.1 cancer cells within the bone, as well as bone histomorphology, were visualized by this staining procedure. […] This is due to ostelytic activity induced by the presence of the 66.1 cancer cells in the bone.

The nature of series [8]: Pharmacokinetic profile in mice. Format: in vivo. The method, then:
(§1) FIG. 4. Pharmacokinetics of Compound A. FIG. 4a: Compound A pharmacokinetic profile in mice and rats. FIG. 4b. Single dose pharmacokinetics in the mouse following intravenous (1 mg/kg) and oral doses (5 mg/kg). Plasma concentration values vs. time.

A short description of series [9]: Pharmacokinetic profile in rats. In kind it is in vivo. On the procedure:
as §1

For series [10], the system named is multiple human cathepsin enzymes. The experiment in a line: Cathepsin inhibitory profile on multiple cathepsin enzymes. In kind it is biochemical. The source says:
FIG. 1. […] Methods are similar to those set forth in the Biological Examples.

Series [11] addresses cathepsin B (Homo sapiens, UniProt P07858). The experiment in a line: Activity-based probe (125-I labeled DMK) assay in HUVEC, cathepsin B. On the set-up: endogenous in cells; host or cells: HUVEC. In kind it is cell-based. The method, then:
(§2) FIG. 2. […] An activity-based probe assaying using 125-I labeled DMK reagent to assess the ability of Compound A to inhibit cathepsin L and cathepsin B protease activity in cells. In this assay human umbilical […] endothelial cells (HUVEC) are dosed with the indicated concentrations of Compound A in vitro. They are then incubated with the 125-I labeled activity probe for a short time, a cellular lysate produced, and the proteins analyzed biochemically by SDS PAGE. The gels are then imaged by autoradiography and the inhibition of protease activity, as assessed by the inhibition of activity probe binding, can be detected. FIG. 2b: Compound A inhibition of cathepsin S activity in the spleen in vivo as a function of time after dosing and plasma levels following a 10 mg/kg dose of the agent. […] The accumulation of the lip10 biomarker was tracked in spleen tissue samples taken from the treated animal. Accordingly, FIG. 2b. is based upon an assay which detects the accumulation of a proteolytic substrate of cathepsin S, the p10 fragment of invariant chain shown here as lip10, following dosing of Compound A in mice at 10 mg/kg/3 mice per time points are dosed with Compound A for the indicated times, and the spleens harvested and frozen. The level of lip10, an indicator cathepsin S inhibition is then detected using SDS PAGE and western blotting in lysates produced from the spleens. […]

In series [12] the target is cathepsin L (Homo sapiens, UniProt P07711). The experiment in a line: Activity-based probe (125-I labeled DMK) assay in HUVEC, cathepsin L. Format: cell-based. On the set-up: endogenous in cells; host or cells: HUVEC. On the procedure: as §2
Chain of cathepsin L (P07711 114-333): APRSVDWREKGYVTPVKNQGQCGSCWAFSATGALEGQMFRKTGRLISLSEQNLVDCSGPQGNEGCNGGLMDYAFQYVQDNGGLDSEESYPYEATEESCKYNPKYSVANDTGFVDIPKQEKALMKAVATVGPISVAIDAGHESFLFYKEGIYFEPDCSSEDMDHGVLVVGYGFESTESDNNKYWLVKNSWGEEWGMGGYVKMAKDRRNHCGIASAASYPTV
The target of series [13] is T1, cathepsin S. The experiment in a line: Accumulation of lip10 biomarker in spleen after dosing. In kind it is in vivo. On the set-up: from tissue; host or cells: mouse spleen (in vivo dosing). Conditions: mice, 10 mg/kg. The method, then:
as §2

Setting [14] is: day 14 and day 21, 100 mg/kg, daily, SC, compared to vehicle.

Chain of cathepsin S enzyme (Rattus norvegicus, UniProt Q02765) (Q02765 113-330): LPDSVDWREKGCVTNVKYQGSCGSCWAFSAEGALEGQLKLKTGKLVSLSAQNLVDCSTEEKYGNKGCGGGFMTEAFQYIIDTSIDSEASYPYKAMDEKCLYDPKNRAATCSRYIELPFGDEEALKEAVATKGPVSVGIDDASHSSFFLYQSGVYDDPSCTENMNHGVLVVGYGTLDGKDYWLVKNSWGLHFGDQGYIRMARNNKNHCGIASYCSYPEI

Take `CC[C@H](NC(=O)[C@H](CS(=O)(=O)CC1CC1)N[C@@H](c1ccc(F)cc1)C(F)(F)F)C(=O)C(=O)NC1CC1` [Compound A, (S)—N-cyclopropyl-3-((R)-3-((cyclopropylmethyl)sulfonyl)-2-(((S)-2,2,2-trifluoro-1-(4-fluorophenyl)ethyl)amino)propanamido)-2-oxopentanamide]: the pIC50 in [1] was over 8.00; in [2], over 9.60; in [3] it was 9.11; in series [4], 9.60. The tumor invasion entry in series [5] is reported as “inhibited”. Further, the angiogenesis result in series [6] is given as “inhibited”. In addition, in series [7] (100 mg/kg SC once a day, nanoparticle-sized formulation in D5W), the “bone pitting (histology, hematoxylin and eosin)” value is given as “reduced”. Also, in series [7] (after 7 days of drug washout), the “effect after drug washout” value is “without any significant effect”. Also, the movement evoked pain entry in series [7] (day 13, 100 mg/kg, daily, SC, compared to vehicle) is listed as “attenuated”. Also, in [7] (setting [14]), the bone destruction result is recorded as “attenuated”. Moreover, in series [7] (setting [14]), the “spontaneous pain in the form of Flinching” value is “attenuated”. Besides, the “spontaneous pain in the form of Guarding” value in series [7] (day 14 and day 21, 100 mg/kg, daily, SC, compared to vehicle or zoledronate) was “attenuated”. In series [7] (day 21, 100 mg/kg, daily, SC, days 7-21, compared to vehicle), the body weight result is given as “retained weight as compared to vehicle”. Further, the pharmacokinetics entry in series [8] and in series [9] was “very favorable pharmacokinetics” throughout. Moreover, the “cathepsin inhibitory profile on multiple cathepsin enzymes” value in series [10] was “very high potency and selectivity”. Besides, in series [11], the “inhibition of cathepsin B activity in endothelial cells, potency” value was “single digit nanomolar potency”. Moreover, the “inhibition of cathepsin L activity in endothelial cells, potency” value in [12] was “single digit nanomolar potency”. For the same molecule, the “activity in vivo as judged by accumulation of a biomarker (lip10) in the spleen” value in [13] was “active in vivo”.
